In US12723024B2 (priority 2021, dated 2026):
Like-named read-outs stand apart in the source and are kept apart here.

Columns and labels:
[1] = Dynamic vapor sorption (DVS) test at 25° C.; assay type: physicochemical; settings: for Desorp. (%) / Sorp. (%): cycle 40-0-95-0-40% RH
[2] = wetted with water or ethanol, ground, dried 10 min; XRPD
Method: Wet samples were ground gently with a mortar and pestle. Post granulation samples were dried under ambient condition for 10 min. Potential change of polymorph form and degree of crystallinity were evaluated by XRPD.

[3] = Salt screening (slurry crystallization); assay type: physicochemical; parameters: key to Salt screening result: (+) shows that a crystalline salt was formed; (−) physical mixtures; settings: for Polymorph obtained in salt screening: XRPD; for Salt screening result: slurry 50° C. then 25° C.
Method: About 45 mg was added to a suitable solvent and different equivalents of acids were added under stirring at 50° C. for about 2 hours and then at 25° C. for at least 32 hours. Ethanol, acetone, and ACN were used as screening solvents. When no precipitation was obtained or only a few solids were obtained, the solutions were placed at 5° C. for crystallization.
(§1) Obtained suspensions were taken out and centrifuged. Solids obtained was analysed by XRPD. Salts with high or medium crystallinity were further characterized (see Table 5).

[4] = Hygroscopicity (water uptake) of salt hits; assay type: physicochemical; settings: salt screening sample
Excerpt: (§2) According to the salt screening results (see Table 4), totally 19 potential salt hits were identified. All the potential salt hits were further investigated by Differential Scanning Calorimetry (DSC), Thermogravimetric analysis (TGA), H-NMR, Ion chromatography (IC), Karl Fischer titration (KF), and Polarized Light Microscopy (PLM) to confirm their identity and evaluate their physicochemical properties as shown in Table 5 below.

[5] = Thermogravimetric analysis (TGA) weight loss; assay type: physicochemical; settings: salt screening sample, at the temperature given (80-200° C.)
Excerpt: as §2

Crystallinity by XRPD = assay type: physicochemical; settings: large scale batch
Method: as §1, §2

[6] = Thermogravimetric analysis (TGA) weight loss; assay type: physicochemical; settings: large scale batch, at the temperature printed in the same cell (100-170° C.)
[7] = ground manually with mortar and pestle for 5 min; XRPD
Method: Potential change of polymorph form and degree of crystallinity were evaluated by XRPD.

[8] = listed as succinate salt Polymorph A

COc1cc(C(F)(F)F)c(OC)cc1[C@@H]1CCCNC1.O=C(O)CCC(=O)O [Succinate salt Polymorph A (anhydrate), succinic acid salt of (S)-3-(2,5-dimethoxy-4-(trifluoromethyl)phenyl)piperidine]
Desorp. (%) ([1]; 0% RH, 25° C.): 0.00%
Sorp. (%) ([1]; 0% RH, 25° C.): 0.06%
Desorp. (%) ([1]; 10% RH, 25° C.): 0.01%
Sorp. (%) ([1]; 10% RH, 25° C.): 0.06%
Desorp. (%) ([1]; 20% RH, 25° C.): 0.01%
Sorp. (%) ([1]; 20% RH, 25° C.): 0.07%
Water absorbed from 40% RH to 95% RH ([1]; 25° C.): about 0.21%
Desorp. (%) ([1]; 30% RH, 25° C.): 0.02%
Sorp. (%) ([1]; 30% RH, 25° C.): 0.07%
Desorp. (%) ([1]; 40% RH, 25° C.): 0.02%
Sorp. (%) ([1]; 40% RH, 25° C.): 0.07%
Desorp. (%) ([1]; 50% RH, 25° C.): 0.02%
Sorp. (%) ([1]; 50% RH, 25° C.): 0.09%
Desorp. (%) ([1]; 60% RH, 25° C.): 0.03%
Sorp. (%) ([1]; 60% RH, 25° C.): 0.08%
Desorp. (%) ([1]; 70% RH, 25° C.): 0.10%
Sorp. (%) ([1]; 70% RH, 25° C.): 0.09%
Desorp. (%) ([1]; 80% RH, 25° C.): 0.11%
Sorp. (%) ([1]; 80% RH, 25° C.): 0.10%
Desorp. (%) ([1]; 90% RH, 25° C.): 0.16%
Sorp. (%) ([1]; 90% RH, 25° C.): 0.14%
Desorp. (%) ([1]; 95% RH, 25° C.): 0.29%
Sorp. (%) ([1]; 95% RH, 25° C.): 0.29%
XRPD after DVS test ([1]; DVS at 25° C.): No form changes
Hygroscopicity ([1]; DVS at 25° C., grade in words): non-hygroscopic
Change of polymorph form and degree of crystallinity [2]: No change in polymorph form and crystallinity was observed
Polymorph obtained in salt screening ([3]; ACN): Polymorph A
Salt screening result ([3]; ACN): +
Polymorph obtained in salt screening ([3]; Acetone): Polymorph A
Salt screening result ([3]; Acetone): +
Polymorph obtained in salt screening ([3]; EtOH): Polymorph A
Salt screening result ([3]; EtOH): +
Hygroscopicity (water uptake % w/w) [4]: (~0.7%) % w/w
Weight loss (%) [5]: 2.1%
Crystallinity (Crystallinity by XRPD): High
Crystallinity (Crystallinity by XRPD; [8]): high crystallinity
Weight loss (%) at Temperature (° C.) [6]: 0.2 at %
Weight loss (%) at Temperature (° C.) [6, 8]: about 0.2%
Change of polymorph form and degree of crystallinity [7]: No change in polymorph form and crystallinity was observed
